Results on six compounds are retold here after ChEMBL document CHEMBL1131951, “Sialidase inhibitors related to zanamivir: synthesis and biological evaluation of 4H-pyran 6-ether and ketone” (Bioorg Med Chem Lett, 1999).

One may read the IC50 as the concentration that inhibits the measured activity by half. A low value points to higher potency.

The subject of one experiment is Influenza B virus. Put plainly: Inhibitory activity against sialidase of influenza B. The class given is functional, organism-based.
For another experiment, the system named is Influenza A virus. Put plainly: Inhibitory activity against sialidase of influenza A. The class given is functional, organism-based.

Turning to `CCC(CC)O[C@@H]1OC(C(=O)O)=C[C@H](N)[C@H]1NC(C)=O`, the results for the IC50 in the experiment with Influenza B virus and in the experiment with Influenza A virus were 42000 nM and 770 nM, respectively.
Consider `CCN(CC)C(=O)[C@@H]1OC(C(=O)O)=C[C@H](N)[C@H]1NC(C)=O`, for which the IC50 amounted to 360 nM with Influenza B virus and 3 nM in the experiment on Influenza A virus.
The like results for `CCC(CC)C(=O)[C@@H]1OC(C(=O)O)=C[C@H](N)[C@H]1NC(C)=O` were, in that order, 470 nM and 2 nM.
Consider `CCC(CC)C(O)[C@@H]1OC(C(=O)O)=C[C@H](N)[C@H]1NC(C)=O` (some centres not stated), for which the IC50 in the experiment with Influenza B virus worked out at 7400 nM; in the experiment with Influenza A virus it was 39 nM.
As for `CCC(CC)O[C@@H]1C=C(C(=O)O)C[C@H](N)[C@H]1NC(C)=O` [OSELTAMIVIR CARBOXYLATE], the values for the IC50 in the experiment on Influenza B virus and in the experiment with Influenza A virus were 32 nM and 2 nM, respectively.
As to `CC(=O)N[C@H]1[C@H]([C@H](O)[C@H](O)CO)OC(C(=O)O)=C[C@@H]1NC(=N)N` [ZANAMIVIR], the IC50 in the experiment on Influenza B virus came out at 4 nM; with Influenza A virus, 5 nM.
